According to ChEMBL document CHEMBL1130623, “Novel cytokine release inhibitors. Part II: Steroids” (Bioorg Med Chem Lett, 1998):
pIC50: −log10 of the molar value.

What was measured:
[1] = organism: Homo sapiens; experiment: (§1) Compound was evaluated for inhibition of Interleukin (IL1-beta) release in human monocytes.; type: functional
[2] = organism: Homo sapiens; experiment: Compound was evaluated for percentage inhibition of Interleukin (IL1-beta) release in human monocytes at a concentration of 1000 nM.; type: functional
[3] = organism: Homo sapiens; experiment: Compound was evaluated for percentage inhibition of Interleukin (IL1-beta) release in human monocytes at a concentration of 3000 nM.; type: functional
[4] = as §1; type: functional, cell-based

Row | Compound | pIC50 [1] | inhibition at 1 µM [2] | also measured
1 | CC(=O)OC1=C[C@@]2(C)C(=CC1=O)C=C[C@H]1[C@@H]3CC[C@H](OC(C)=O)[C@@]3(C)CC[C@@H]12 | 5.52 |  | 
2 | COC(=O)[C@]1(C)CC[C@]2(C)CC[C@]3(C)C4=CCc5c(cc(OC(C)=O)c(OC(C)=O)c5C)[C@]4(C)CC[C@@]3(C)[C@@H]2C1 [PRISTIMEROL DIACETATE] | 7.10 |  | 
3 | C[C@]12CC[C@@H]3c4ccc(O)cc4C=C[C@H]3[C@@H]1CCC2=O |  | 1% | 
4 | C[C@]12CC[C@H]3C(=CCc4cc(O)ccc43)[C@@H]1CCC2=O [EQUILIN] |  | -11% | 
5 | C[C@]12CC[C@H]3[C@@H](C=CC4=CC(=O)C(O)=C[C@@]43C)[C@@H]1CC[C@@H]2O | 5.52 |  | 
6 | C[C@]12CCc3c(ccc4cc(O)ccc34)[C@@H]1CCC2=O [EQUILENIN] |  | 27% | 
7 | C[C@]12CC[C@H]3[C@@H](CCC4=CC(=O)C(O)=C[C@@]43C)[C@@H]1CC[C@@H]2O |  |  | inhibition at 3 µM [3]: 36%
8 | CC(=O)Oc1cc2c(c(C)c1OC(C)=O)[C@H]1CC[C@]3(C)[C@@H](OC(C)=O)CC[C@H]3[C@@H]1C=C2 | 6.82 |  | 
9 | CC1=C(O)C(=O)C=C2C1=CC=C1[C@@]2(C)CC[C@@]2(C)[C@@H]3C[C@](C)(C(=O)O)CC[C@]3(C)CC[C@]12C [CELASTROL] |  |  | pIC50 [4]: 7.40
